This note sets out measurements from ChEMBL document CHEMBL1158488, “Investigation of the relative cellular permeability of DNA-binding pyrrole-imidazole polyamides” (J Med Chem, 2009).

For one data set, the system named is HeLa. In words: Cell permeability in human HeLa cells assessed as glucocorticoid receptor-dependent induction of luciferase activity after 40 hrs by GAL4-responsive luciferase reporter gene assay. A general note: Reporter assays use an easily measured gene product as a stand-in for the process of interest.
Data set [1] deals with glucocorticoid receptor. In words: Cell permeability in human HeLa cells assessed as glucocorticoid receptor-dependent induction of luciferase activity at 6 uM after 40 hrs by GAL4-responsive luciferase reporter gene assay relative to control. As to conditions: HeLa cells with GAL4-responsive luciferase reporter.
Data set [2] addresses T1, Glucocorticoid receptor (Homo sapiens, UniProt P04150).
T1 sequence (P04150 whole entry): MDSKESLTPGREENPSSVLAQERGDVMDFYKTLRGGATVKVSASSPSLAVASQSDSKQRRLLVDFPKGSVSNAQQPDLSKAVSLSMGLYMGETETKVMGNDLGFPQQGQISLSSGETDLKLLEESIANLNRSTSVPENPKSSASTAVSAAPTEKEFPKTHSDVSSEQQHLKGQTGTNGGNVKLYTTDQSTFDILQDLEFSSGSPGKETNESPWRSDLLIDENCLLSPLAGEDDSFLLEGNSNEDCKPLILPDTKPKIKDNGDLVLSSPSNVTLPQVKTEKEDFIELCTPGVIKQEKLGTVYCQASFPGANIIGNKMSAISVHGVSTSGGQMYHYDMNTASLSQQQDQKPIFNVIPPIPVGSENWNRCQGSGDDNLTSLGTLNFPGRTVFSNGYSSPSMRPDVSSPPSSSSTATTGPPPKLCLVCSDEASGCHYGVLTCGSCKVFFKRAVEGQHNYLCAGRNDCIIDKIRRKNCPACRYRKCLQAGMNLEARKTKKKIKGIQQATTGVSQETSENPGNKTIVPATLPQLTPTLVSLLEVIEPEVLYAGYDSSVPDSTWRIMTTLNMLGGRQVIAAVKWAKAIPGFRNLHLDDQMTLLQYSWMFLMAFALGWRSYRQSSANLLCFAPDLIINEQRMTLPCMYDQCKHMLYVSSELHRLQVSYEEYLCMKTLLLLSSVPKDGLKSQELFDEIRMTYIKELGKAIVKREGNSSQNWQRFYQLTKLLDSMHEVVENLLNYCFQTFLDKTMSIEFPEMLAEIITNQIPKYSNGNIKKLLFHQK
Description: Displacement of fluormone from human recombinant glucocorticoid receptor ligand binding domain by fluorescence polarization assay

In data set [3] the test system is glucocorticoid receptor. In words: Cell permeability in human HeLa cells assessed as glucocorticoid receptor-dependent induction of luciferase activity at 0.6 uM after 40 hrs by GAL4-responsive luciferase reporter gene assay relative to control. As to conditions: HeLa cells with GAL4-responsive luciferase reporter.
In another data set the test system is MCF7. The data set is described as follows: Cell permeability in human MCF7 cells assessed as glucocorticoid receptor-dependent induction of luciferase activity after 40 hrs by GAL4-responsive luciferase reporter gene assay. As to conditions: MCF7, 40 h.
The test system of data set [4] is glucocorticoid receptor. The data set is described as follows: Cell permeability in human MCF7 cells assessed as glucocorticoid receptor-dependent induction of luciferase activity at 1 uM after 40 hrs by GAL4-responsive luciferase reporter gene assay relative to control. Conditions: MCF7 cells with GAL4-responsive luciferase reporter.

As usually defined, the EC50 is the concentration giving half of the maximal effect. As to `C[C@@H]1C[C@H]2[C@@H]3CCC4=CC(=O)C=C[C@]4(C)[C@@]3(F)[C@@H](O)C[C@]2(C)[C@@]1(O)C(N)=O` [OXDEX], the half-maximal effective concentration (EC50) in the data set on HeLa stood at 35000 nM.

The term fold induction denotes the signal under treatment as a multiple of the control signal. A word on the IC50: it is the midpoint of a concentration-inhibition curve. Low values mean greater potency, high ones weaker potency. Turning to `C[C@H]1C[C@@H]2[C@H]3CCC4=CC(=O)C=C[C@@]4(C)[C@]3(F)[C@H](O)C[C@@]2(C)[C@]1(O)C(=O)CSCCNC(=S)NCCNC(=O)c1cc(NC(=O)c2cc(NC(=O)c3nccn3C)cn2C)cn1C`, the half-maximal effective concentration (EC50) in the data set with HeLa turned out to be 1200 nM. In the data set with glucocorticoid receptor [1], the fold induction at 40 h, 6 µM turned out to be 3400. This compound had a 50% inhibitory concentration (IC50) against Glucocorticoid receptor [2] of 14 nM.

With `CC(=O)NCCNC(=S)NCCSCC(=O)[C@@]1(O)[C@H](C)C[C@H]2[C@@H]3CCC4=CC(=O)C=C[C@]4(C)[C@@]3(F)[C@@H](O)C[C@@]21C`, the EC50 with HeLa is 290 nM. Further, the fold induction at 40 h, 0.6 µM with glucocorticoid receptor [3] was determined as 3600. This compound yielded an IC50 on Glucocorticoid receptor [2] of 9.8 nM.

At Glucocorticoid receptor [2], `C[C@@H]1C[C@H]2[C@@H]3CCC4=CC(=O)C=C[C@]4(C)[C@@]3(F)[C@@H](O)C[C@]2(C)[C@@]1(O)C(=O)CSCCNC(=S)NCCCN(C)CCCNC(=O)CCNC(=O)c1cc(NC(=O)c2cc(NC(=O)c3cc(NC(=O)c4cc(NC(=O)CCCNC(=O)c5nccn5C)cn4C)cn3C)cn2C)cn1C` yielded an IC50 of 16 nM.

In turn, `C[C@@H]1C[C@H]2[C@@H]3CCC4=CC(=O)C=C[C@]4(C)[C@@]3(F)[C@@H](O)C[C@]2(C)[C@@]1(O)C(=O)CSCCNC(=S)NCCCN(C)CCCNC(=O)CCNC(=O)c1cc(NC(=O)c2nccn2C)cn1C` returned an IC50 against Glucocorticoid receptor [2] of 8.5 nM.

On to `C[C@H]1C[C@@H]2[C@H]3CCC4=CC(=O)C=C[C@@]4(C)[C@]3(F)[C@H](O)C[C@@]2(C)[C@]1(O)C(=O)CSCCNC(=S)NCCNC(=O)c1cc(NC(=O)c2cc(NC(=O)c3cc(NC(=O)c4cc(NC(=O)CCCNC(=O)c5cc(NC(=O)c6cc(NC(=O)c7nccn7C)cn6C)cn5C)cn4C)cn3C)cn2C)cn1C`, for which the concentration for half-maximal inhibition (IC50) against Glucocorticoid receptor [2] came out at 21 nM.

`C[C@H]1C[C@@H]2[C@H]3CCC4=CC(=O)C=C[C@@]4(C)[C@]3(F)[C@H](O)C[C@@]2(C)[C@]1(O)C(=O)CSCCNC(=S)NCCNC(=O)c1cc(NC(=O)c2cc(NC(=O)c3cc(NC(=O)c4nccn4C)cn3C)cn2C)cn1C`: at Glucocorticoid receptor [2], half-maximal inhibition (IC50) was put at 26 nM.

For the compound `C[C@@H]1C[C@H]2[C@@H]3CCC4=CC(=O)C=C[C@]4(C)[C@@]3(F)[C@@H](O)C[C@]2(C)[C@@]1(O)C(=O)CSCCNC(=S)NCCCN(C)CCCNC(=O)CCNC(=O)c1cc(NC(=O)c2cc(NC(=O)c3nccn3C)cn2C)cn1C`, the IC50 against Glucocorticoid receptor [2] turned out to be 12 nM.

`C[C@@H]1C[C@H]2[C@@H]3CCC4=CC(=O)C=C[C@]4(C)[C@@]3(F)[C@@H](O)C[C@]2(C)[C@@]1(O)C(=O)CSCCNC(=S)NCCCN(C)CCCNC(=O)CCNC(=O)c1cc(NC(=O)c2cc(NC(=O)c3cc(NC(=O)c4cc(NC(=O)c5nccn5C)cn4C)cn3C)cn2C)cn1C`: half-maximal inhibition on Glucocorticoid receptor [2] (IC50) was put at 16 nM. The IC50 values of the last two compounds are within 1.5-fold of each other.

As to `C[C@H]1C[C@@H]2[C@H]3CCC4=CC(=O)C=C[C@@]4(C)[C@]3(F)[C@H](O)C[C@@]2(C)[C@]1(O)C(=O)CSCCNC(=S)NCCNC(=O)c1cc(NC(=O)c2cc(NC(=O)c3cc(NC(=O)c4cc(NC(=O)CCCNC(=O)c5nccn5C)cn4C)cn3C)cn2C)cn1C`, the concentration for half-maximal inhibition (IC50) on Glucocorticoid receptor [2] came out at 23 nM.

With `C[C@H]1C[C@@H]2[C@H]3CCC4=CC(=O)C=C[C@@]4(C)[C@]3(F)[C@H](O)C[C@@]2(C)[C@]1(O)C(=O)NCCNC(=O)c1cc(NC(=O)c2cc(NC(=O)c3cc(NC(=O)c4nccn4C)cn3C)cn2C)cn1C`, the concentration for half-maximal inhibition (IC50) at Glucocorticoid receptor [2] stood at 550 nM.

At Glucocorticoid receptor [2], `C[C@@H]1C[C@H]2[C@@H]3CCC4=CC(=O)C=C[C@]4(C)[C@@]3(F)[C@@H](O)C[C@]2(C)[C@@]1(O)C(=O)CSCCNC(=S)NCCCN(C)CCCNC(=O)CCNC(=O)c1cc(NC(=O)c2cc(NC(=O)c3cc(NC(=O)c4cc(NC(=O)CCCNC(=O)c5cc(NC(=O)c6cc(NC(=O)c7nccn7C)cn6C)cn5C)cn4C)cn3C)cn2C)cn1C` displayed an IC50 of 20 nM.

For the compound `CC(=O)NCCC(=O)NCCCN(C)CCCNC(=S)NCCSCC(=O)[C@@]1(O)[C@H](C)C[C@H]2[C@@H]3CCC4=CC(=O)C=C[C@]4(C)[C@@]3(F)[C@@H](O)C[C@@]21C`, in the data set with glucocorticoid receptor [1], the fold induction at 40 h, 6 µM was 600. In addition, the EC50 in the data set on MCF7 was 250 nM. Also, the fold induction at 40 h, 1 µM with glucocorticoid receptor [4] worked out at 1200. For the same compound, it took 9.3 nM to reach half-maximal inhibition against Glucocorticoid receptor [2] (IC50).

`C[C@H]1C[C@@H]2[C@H]3CCC4=CC(=O)C=C[C@@]4(C)[C@]3(F)[C@H](O)C[C@@]2(C)[C@]1(O)C(=O)NCCNC(=O)c1cc(NC(=O)c2cc(NC(=O)c3cc(NC(=O)c4cc(NC(=O)CCCNC(=O)c5cc(NC(=O)c6cc(NC(=O)c7cc(NC(=O)c8nccn8C)cn7C)cn6C)cn5C)cn4C)cn3C)cn2C)cn1C`: on Glucocorticoid receptor [2], the concentration for half-maximal inhibition (IC50) worked out at 840 nM.

Regarding `C[C@H]1C[C@@H]2[C@H]3CCC4=CC(=O)C=C[C@@]4(C)[C@]3(F)[C@H](O)C[C@@]2(C)[C@]1(O)C(=O)NCCNC(=O)c1cc(NC(=O)c2nccn2C)cn1C`, in the data set on HeLa, the concentration giving a half-maximal response (EC50) came to 4200 nM. On Glucocorticoid receptor [2], this compound gave a half-maximal inhibitory concentration (IC50) of 460 nM.

As to `C[C@H]1C[C@@H]2[C@H]3CCC4=CC(=O)C=C[C@@]4(C)[C@]3(F)[C@H](O)C[C@@]2(C)[C@]1(O)C(=O)CSCCNC(=S)NCCNC(=O)c1cc(NC(=O)c2cc(NC(=O)c3cc(NC(=O)c4cc(NC(=O)CCCNC(=O)c5cc(NC(=O)c6cc(NC(=O)c7cc(NC(=O)c8nccn8C)cn7C)cn6C)cn5C)cn4C)cn3C)cn2C)cn1C`, the fold induction at 40 h, 6 µM in the data set with glucocorticoid receptor [1] turned out to be 1500. This compound also showed an IC50 on Glucocorticoid receptor [2] of 27 nM.

`C[C@H]1C[C@@H]2[C@H]3CCC4=CC(=O)C=C[C@@]4(C)[C@]3(F)[C@H](O)C[C@@]2(C)[C@]1(O)C(=O)CSCCNC(=S)NCCNC(=O)c1cc(NC(=O)c2cc(NC(=O)c3cc(NC(=O)c4cc(NC(=O)c5nccn5C)cn4C)cn3C)cn2C)cn1C` gave a 50% inhibitory concentration (IC50) against Glucocorticoid receptor [2] of 34 nM.

As for `C[C@H]1C[C@@H]2[C@H]3CCC4=CC(=O)C=C[C@@]4(C)[C@]3(F)[C@H](O)C[C@@]2(C)[C@]1(O)C(=O)CSCCNC(=S)NCCNC(=O)c1cc(NC(=O)c2cc(NC(=O)c3cc(NC(=O)c4cc(NC(=O)CCCNC(=O)c5cc(NC(=O)c6nccn6C)cn5C)cn4C)cn3C)cn2C)cn1C`, 21 nM corresponded to half-maximal inhibition against Glucocorticoid receptor [2] (IC50).

As to `C[C@H]1C[C@@H]2[C@H]3CCC4=CC(=O)C=C[C@@]4(C)[C@]3(F)[C@H](O)C[C@@]2(C)[C@]1(O)C(=O)CSCCNC(=S)NCCNC(=O)c1cc(NC(=O)c2cncn2C)cn1C`, the EC50 in the data set on HeLa was determined as 750 nM. Further, the 50% inhibitory concentration (IC50) against Glucocorticoid receptor [2] came out at 5.7 nM.

`C[C@@H]1C[C@H]2[C@@H]3CCC4=CC(=O)C=C[C@]4(C)[C@@]3(F)[C@@H](O)C[C@]2(C)[C@@]1(O)C(=O)CSCCNC(=S)NCCCN(C)CCCNC(=O)CCNC(=O)c1cc(NC(=O)c2cc(NC(=O)c3cc(NC(=O)c4cc(NC(=O)CCCNC(=O)c5cc(NC(=O)c6nccn6C)cn5C)cn4C)cn3C)cn2C)cn1C` yielded an IC50 against Glucocorticoid receptor [2] of 22 nM.

The Kd is the concentration at which binding is half-saturated. Low values mean tighter binding, high ones weaker binding. On Nucleic Acid, `C[C@@H]1C[C@H]2[C@@H]3CCC4=CC(=O)C=C[C@]4(C)[C@@]3(F)[C@@H](O)C[C@]2(C)[C@@]1(O)C(=O)CSCCNC(=S)NCCCN(C)CCCNC(=O)CCNC(=O)c1cc(NC(=O)c2cc(NC(=O)c3cc(NC(=O)c4cc(NC(=O)CCCNC(=O)c5cc(NC(=O)c6cc(NC(=O)c7cc(NC(=O)c8nccn8C)cn7C)cn6C)cn5C)cn4C)cn3C)cn2C)cn1C` had an equilibrium dissociation constant (Kd) of 5 nM. This counts as single-digit nanomolar.

Compound `C[C@@H]1C[C@H]2[C@@H]3CCC4=CC(=O)C=C[C@]4(C)[C@@]3(F)[C@@H](O)C[C@]2(C)[C@@]1(O)C(=O)CSCCNC(=S)NCCCN(C)CCCNC(=O)CCNC(=O)c1cc(NC(=O)c2cc(NC(=O)c3cc(NC(=O)c4nccn4C)cn3C)cn2C)cn1C` gave a 50% inhibitory concentration (IC50) at Glucocorticoid receptor [2] of 20 nM.
